Test results reported in ChEMBL document CHEMBL1201862, “PubChem BioAssay data set” (2004).
Active and inactive are the calls of the source.

Key:
[1] = tested on: Streptococcus sp. 'group A'; assay: Streptococcus pyogenes SK(-)GAS viability under kanamycin – luminescence, BacTiterGlo, confirmation, counter-screen for streptokinase expression inhibitor project, dose response (AID 1900); format: functional, organism-based
[2] = tested on: Vero; assay: mammalian cell viability reduction – secondary assay, cytotoxicity control for West Nile virus antiviral project, dose response (AID 1650); format: functional; settings: Chlorocebus sabaeus
[3] = biological target: T1, Streptokinase A (Streptococcus pyogenes serotype M1, UniProt P10520); assay: viability-normalized secreted streptokinase activity reduction – plasminogen activation absorbance, OD405, dose response (AID 1914); format: functional, Streptococcus pyogenes M1 GAS;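 also: secreted streptokinase activity via plasminogen activation per viability signal from cell pellet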
T1 sequence (P10520 whole entry): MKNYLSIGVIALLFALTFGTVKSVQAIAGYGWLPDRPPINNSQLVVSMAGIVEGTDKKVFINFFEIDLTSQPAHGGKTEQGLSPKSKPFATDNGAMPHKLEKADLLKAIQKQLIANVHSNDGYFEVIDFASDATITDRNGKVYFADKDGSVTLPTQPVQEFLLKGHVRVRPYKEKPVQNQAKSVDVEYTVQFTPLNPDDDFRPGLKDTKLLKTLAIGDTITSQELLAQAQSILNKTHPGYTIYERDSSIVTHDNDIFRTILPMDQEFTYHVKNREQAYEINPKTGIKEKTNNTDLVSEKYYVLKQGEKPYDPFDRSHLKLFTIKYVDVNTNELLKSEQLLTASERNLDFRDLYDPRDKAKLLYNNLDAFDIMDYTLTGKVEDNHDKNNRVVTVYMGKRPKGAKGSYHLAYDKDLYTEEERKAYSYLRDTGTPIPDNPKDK

[4] = tested on: Streptococcus; assay: GAS UMAA2166 growth inhibition – luminescence, BacTiterGlo, counter-screen for streptokinase expression inhibitor project, dose response (AID 1915); format: functional, organism-based;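 also: potency for reduction of bacterial viability or growth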
[5] = biological target: T2, ATP-dependent translocase ABCB1 (Homo sapiens, UniProt P08183); assay: inhibition of BCRP-mediated JC-1 efflux – Ig-MXP3 cells, flow cytometry, set 2, dose response (AID 504566); format: functional; settings: read-out: EC50_MICROM_;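 also: flow cytometry median green fluorescence of retained JC-1 dye; potency of efflux pump inhibition measured as rising substrate retention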
[6] = biological target: T2, ATP-dependent translocase ABCB1; assay: P-gp JC-1 efflux blockade concentration-response – Jurkat-DNR cells, flow cytometry, set 2, dose response (AID 504569); format: functional; settings: read-out: EC50_MICROM_;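 also: potency of pump inhibitors that raise cellular JC-1 green fluorescence up to the nicardipine level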
[7] = tested on: HEK293; assay: cells; format: functional, cell-based; settings: Homo sapiens
[8] = biological target: T3, Nuclear receptor subfamily 0 group B member 1 (Homo sapiens, UniProt P51843); assay: Luminescence-based cell-based high throughput dose response assay for inhibitors of the orphan nuclear receptor subfamily 0, group B, member 1 (DAX1; NR0B1). [Related pubchem assays (depositor defined):AID504766, AID504790]; format: functional
T3 sequence (P51843 whole entry): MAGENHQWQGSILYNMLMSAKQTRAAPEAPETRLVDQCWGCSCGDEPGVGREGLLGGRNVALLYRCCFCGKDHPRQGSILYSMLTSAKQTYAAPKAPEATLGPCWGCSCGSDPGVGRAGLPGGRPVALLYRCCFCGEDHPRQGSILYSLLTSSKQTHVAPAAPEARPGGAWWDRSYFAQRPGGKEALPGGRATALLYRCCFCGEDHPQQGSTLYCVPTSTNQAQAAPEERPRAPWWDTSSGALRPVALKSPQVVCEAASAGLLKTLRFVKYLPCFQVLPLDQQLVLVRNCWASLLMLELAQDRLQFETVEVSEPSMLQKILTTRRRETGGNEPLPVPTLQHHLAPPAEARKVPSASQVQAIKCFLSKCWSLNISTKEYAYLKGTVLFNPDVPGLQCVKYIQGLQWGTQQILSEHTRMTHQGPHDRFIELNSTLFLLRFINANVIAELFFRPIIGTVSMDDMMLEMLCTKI

[9] = tested on: HEK293; assay: inhibition of NOD1-driven NF-kB reporter – cell-based, luminescence, uHTS, primary screen (AID 1578); format: functional; settings: Homo sapiens
[10] = tested on: HEK293; assay: cells; format: functional, cell-based; settings: Homo sapiens; remark: listed apart in the source
[11] = tested on: HEK293; assay: cells; format: functional, cell-based; settings: Homo sapiens; remark: listed apart in the source
[12] = tested on: HEK293; assay: NOD2 signaling inhibitors in MDP-stimulated cells, cell-based, uHTS, luminescence (AID 2001); format: functional; settings: Homo sapiens
[13] = microbe, parasite or virus in culture; format: functional; settings: Mycobacterium tuberculosis
[14] = THP-1 cell cytotoxicity, dose response, cytotoxicity control for non-replicating M. tuberculosis project (AID 489025); format: functional
[15] = biological target: T4, Microphthalmia-associated transcription factor (Homo sapiens, UniProt O75030); assay: reducers of TRPM1 reporter luminescence, concentration series – cell-based, SK-MEL-5, cherry-picked, set 3, MITF inhibitor project, dose response (AID 493073); format: functional;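 also: SK-MEL-5 melanoma cells with luciferase driven by the MITF target TRPM1 promoter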
T4 sequence (O75030 whole entry): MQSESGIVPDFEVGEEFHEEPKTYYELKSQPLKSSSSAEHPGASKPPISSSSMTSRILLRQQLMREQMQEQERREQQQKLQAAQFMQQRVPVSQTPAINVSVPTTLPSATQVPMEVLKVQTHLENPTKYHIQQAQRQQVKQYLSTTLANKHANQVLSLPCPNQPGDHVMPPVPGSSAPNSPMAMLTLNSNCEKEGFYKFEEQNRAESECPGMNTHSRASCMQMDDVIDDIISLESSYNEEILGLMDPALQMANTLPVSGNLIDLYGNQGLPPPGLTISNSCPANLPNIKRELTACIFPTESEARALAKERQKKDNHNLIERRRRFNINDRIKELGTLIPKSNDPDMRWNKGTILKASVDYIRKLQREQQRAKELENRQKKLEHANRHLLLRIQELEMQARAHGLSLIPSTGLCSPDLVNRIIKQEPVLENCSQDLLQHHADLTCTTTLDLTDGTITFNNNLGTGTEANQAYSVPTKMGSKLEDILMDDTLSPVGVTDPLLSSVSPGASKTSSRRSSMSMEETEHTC

[16] = cells; format: functional
[17] = biological target: T5, Replicative DNA helicase DnaB (Mycobacterium tuberculosis, UniProt P9WMR3); assay: DnaB intein splicing inhibitors, dose response, biochemical, cell-free fluorescence (AID 449749); format: functional
T5 sequence (P9WMR3 whole entry): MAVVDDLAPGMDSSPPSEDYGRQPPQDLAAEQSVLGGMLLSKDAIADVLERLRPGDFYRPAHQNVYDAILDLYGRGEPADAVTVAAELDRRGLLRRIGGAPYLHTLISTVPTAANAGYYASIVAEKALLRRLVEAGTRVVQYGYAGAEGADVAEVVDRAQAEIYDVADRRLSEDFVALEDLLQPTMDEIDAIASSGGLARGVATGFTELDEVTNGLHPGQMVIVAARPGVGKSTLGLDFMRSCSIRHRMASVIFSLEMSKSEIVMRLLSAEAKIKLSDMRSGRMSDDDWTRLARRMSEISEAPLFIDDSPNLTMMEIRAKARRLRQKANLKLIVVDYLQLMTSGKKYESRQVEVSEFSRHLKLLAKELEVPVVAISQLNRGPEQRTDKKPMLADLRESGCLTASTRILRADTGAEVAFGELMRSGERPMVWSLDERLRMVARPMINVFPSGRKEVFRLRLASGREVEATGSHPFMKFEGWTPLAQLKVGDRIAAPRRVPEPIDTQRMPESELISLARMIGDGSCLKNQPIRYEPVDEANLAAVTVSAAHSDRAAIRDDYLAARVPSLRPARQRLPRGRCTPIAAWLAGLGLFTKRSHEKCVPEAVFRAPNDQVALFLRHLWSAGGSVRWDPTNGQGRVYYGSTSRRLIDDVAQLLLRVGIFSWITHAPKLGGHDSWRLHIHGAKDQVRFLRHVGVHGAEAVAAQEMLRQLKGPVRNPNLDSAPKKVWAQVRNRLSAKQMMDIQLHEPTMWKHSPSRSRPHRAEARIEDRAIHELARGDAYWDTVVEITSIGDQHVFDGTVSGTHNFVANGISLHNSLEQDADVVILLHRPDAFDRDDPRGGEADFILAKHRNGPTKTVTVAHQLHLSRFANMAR

[18] = biological target: T6, Protein RecA (Mycobacterium tuberculosis, UniProt P9WHJ3); assay: Fluorescence Cell-Free Homogeneous Dose Retest to Identify Inhibitors of RecA-Intein Splicing Activity. [Related pubchem assays (depositor defined):AID2097, AID2223, AID489010, AID492950]; format: functional
T6 sequence (P9WHJ3 whole entry): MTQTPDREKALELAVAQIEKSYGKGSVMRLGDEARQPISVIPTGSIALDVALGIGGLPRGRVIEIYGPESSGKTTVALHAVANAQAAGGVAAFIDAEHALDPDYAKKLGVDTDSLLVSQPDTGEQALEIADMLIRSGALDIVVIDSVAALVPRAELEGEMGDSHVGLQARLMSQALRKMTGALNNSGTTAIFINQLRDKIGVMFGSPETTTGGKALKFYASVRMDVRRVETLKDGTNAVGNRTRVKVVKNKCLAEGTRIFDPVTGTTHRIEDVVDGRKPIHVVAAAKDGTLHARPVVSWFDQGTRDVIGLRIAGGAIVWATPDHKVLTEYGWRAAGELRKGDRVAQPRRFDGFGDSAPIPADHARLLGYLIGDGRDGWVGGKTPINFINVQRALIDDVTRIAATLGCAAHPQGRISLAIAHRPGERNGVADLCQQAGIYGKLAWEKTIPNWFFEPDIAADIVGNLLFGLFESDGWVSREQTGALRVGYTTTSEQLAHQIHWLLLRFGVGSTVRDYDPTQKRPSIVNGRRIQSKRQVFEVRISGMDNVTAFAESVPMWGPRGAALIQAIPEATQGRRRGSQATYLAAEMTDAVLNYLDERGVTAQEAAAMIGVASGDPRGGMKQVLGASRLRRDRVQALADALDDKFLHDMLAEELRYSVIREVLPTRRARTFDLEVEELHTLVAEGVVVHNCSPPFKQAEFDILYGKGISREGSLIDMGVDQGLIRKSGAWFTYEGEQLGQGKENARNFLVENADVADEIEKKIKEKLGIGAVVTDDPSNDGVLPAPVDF

[19] = A549 cell cytotoxicity, dose response, cytotoxicity control, plate reader, cherry-pick, antagonist series (AID 743412); format: functional, cell-based
[20] = toxicity toward HepG2 liver cells – cell-based, plate reader, cherry-pick, antagonist series, cytotoxicity control, dose response (AID 743416); format: functional
[21] = blockers of bursicon-stimulated LGR2 cAMP reporter – cell-based, HEK293, CRE-luciferase reporter, cherry pick, set 2, dose response (AID 743343); format: functional;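 also: transfected cells were stimulated with diluted bursicon conditioned medium after compound addition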
[22] = blockade of melanocortin 4 receptor signaling – cell-based, plate reader, cherry pick, counter-screen for LGR2 antagonist project, dose response (AID 743444); format: functional;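 also: transfected HEK 293 cells stimulated with alpha-MSH peptide; potency of inhibitors of the alpha-MSH evoked signal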
[23] = viability loss in HEK293 cells – cell-based, plate reader, cherry-picked samples, cytotoxicity control, dose response (AID 743446); format: functional
[24] = biological target: T7, Low molecular weight phosphotyrosine protein phosphatase (Homo sapiens, UniProt P24666); format: functional; settings: read-out: IC50_Mean
T7 sequence (P24666 whole entry): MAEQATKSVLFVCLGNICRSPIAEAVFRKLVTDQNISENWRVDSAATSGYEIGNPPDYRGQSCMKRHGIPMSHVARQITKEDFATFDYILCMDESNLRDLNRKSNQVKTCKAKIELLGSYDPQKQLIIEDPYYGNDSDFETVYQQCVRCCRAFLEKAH

[25] = biological target: T7, Low molecular weight phosphotyrosine protein phosphatase; format: functional; settings: read-out: IC50_Mean; remark: listed apart in the source

T2 sequence (P08183 whole entry): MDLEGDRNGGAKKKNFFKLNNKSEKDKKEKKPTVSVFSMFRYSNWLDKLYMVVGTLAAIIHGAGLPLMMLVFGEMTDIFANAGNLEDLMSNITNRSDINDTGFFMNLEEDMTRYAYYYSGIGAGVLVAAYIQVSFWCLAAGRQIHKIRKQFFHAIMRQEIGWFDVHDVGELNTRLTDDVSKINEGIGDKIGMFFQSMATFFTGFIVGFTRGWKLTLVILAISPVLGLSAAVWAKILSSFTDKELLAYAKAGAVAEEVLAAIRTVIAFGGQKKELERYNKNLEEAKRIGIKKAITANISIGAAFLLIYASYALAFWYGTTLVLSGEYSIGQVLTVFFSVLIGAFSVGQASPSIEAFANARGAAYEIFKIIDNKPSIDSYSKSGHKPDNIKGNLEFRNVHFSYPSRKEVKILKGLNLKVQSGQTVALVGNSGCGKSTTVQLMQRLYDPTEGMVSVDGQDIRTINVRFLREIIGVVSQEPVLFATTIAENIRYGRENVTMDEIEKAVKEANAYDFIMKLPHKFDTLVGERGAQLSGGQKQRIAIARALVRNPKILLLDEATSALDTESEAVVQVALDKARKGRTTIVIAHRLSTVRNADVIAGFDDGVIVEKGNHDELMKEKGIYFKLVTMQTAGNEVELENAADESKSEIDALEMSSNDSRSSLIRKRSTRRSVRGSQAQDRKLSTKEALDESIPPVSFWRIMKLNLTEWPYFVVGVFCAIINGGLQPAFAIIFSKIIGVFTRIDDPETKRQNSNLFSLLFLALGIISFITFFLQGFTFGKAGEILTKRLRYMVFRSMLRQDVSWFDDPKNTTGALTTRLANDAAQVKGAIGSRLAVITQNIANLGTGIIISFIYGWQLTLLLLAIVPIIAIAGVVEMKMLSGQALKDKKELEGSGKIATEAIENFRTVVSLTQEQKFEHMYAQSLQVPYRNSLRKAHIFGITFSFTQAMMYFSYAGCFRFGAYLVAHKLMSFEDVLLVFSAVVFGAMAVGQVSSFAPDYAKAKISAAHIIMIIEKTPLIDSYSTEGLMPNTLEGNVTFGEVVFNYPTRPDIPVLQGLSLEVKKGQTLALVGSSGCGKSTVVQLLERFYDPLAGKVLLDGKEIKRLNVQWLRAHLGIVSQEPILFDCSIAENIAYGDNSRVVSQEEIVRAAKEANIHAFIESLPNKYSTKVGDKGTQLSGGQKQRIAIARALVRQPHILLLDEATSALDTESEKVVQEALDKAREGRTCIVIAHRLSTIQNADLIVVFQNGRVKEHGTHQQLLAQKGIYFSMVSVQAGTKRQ

SMILES: Cc1nn2c(N3CCN(C(=O)c4ccco4)CC3)cc(C(C)(C)C)nc2c1-c1ccccc1
- EC50 [1]: 3.59 µM (active)
- CC50 [2]: 42.1 µM (active)
- EC50 [3]: 8.62 µM (active)
- EC50 [4]: 22.1 µM (active)
- EC50 [5]: 6.22 µM (active)
- EC50 [6]: 11.1 µM (active)

SMILES: CN(Cc1ccc(C(C)(C)C)cc1)C(=O)C1CCN(C(=O)Nc2ccccc2)CC1
- IC50 [7]: > 67.5 µM (inactive)
- IC50 [8]: > 67.5 µM (inactive)

SMILES: CC(=O)c1ccc(Sc2nnnn2-c2ccccc2)c([N+](=O)[O-])c1
- EC50 [9]: 14.3 µM (active)
- IC50 [10]: 2.12 µM (active)
- IC50 [11]: > 20 µM (inactive)
- IC50 [12]: 3.13 µM (active)
- CC50 [13]: > 40 µM (active)
- CC50 [14]: 14.9 µM (active)
- AC50 [15]: 7.82 µM (active)
- IC50 [16]: 26.2 µM (active)
- AC50 [17]: 5.34 µM (active)
- EC50 [18]: 14.5 µM (active)
- AC50 [19]: 49.7 µM (active)
- AC50 [20]: > 52 µM (inactive)
- AC50 [21]: 10.8 µM (active)
- AC50 [22]: 9.52 µM (active)
- AC50 [23]: 33.2 µM (active)

SMILES: COc1cccc(C(=O)NC(=O)Nc2cc(C)[nH]n2)c1
- IC50 [7]: > 67.5 µM (inactive)
- IC50 [8]: > 67.5 µM (inactive)

SMILES: CNc1nc2c(-c3ccc(Cl)cc3)nnn2c2ccccc12
- IC50 [24]: 11.1 µM (active)
- IC50 [25]: 3.14 µM (active)

SMILES: Cc1cccnc1NC(=O)C(C)N1C(=O)c2ccccc2C1=O (stereo not drawn)
- IC50 [7]: > 67.5 µM (inactive)
- IC50 [8]: > 67.5 µM (inactive)

SMILES: Cc1cc(N2CCN(C(=O)c3ccco3)CC2)n2nc(-c3ccc(F)cc3)cc2n1
- EC50 [5]: 2.87 µM (active)
- EC50 [6]: 10.8 µM (active)

SMILES: COc1ccc(-c2cc(=O)c3ccccc3o2)cc1 [4'-METHOXYFLAVONE]
- IC50 [7]: > 67.5 µM (inactive)
- IC50 [8]: > 67.5 µM (inactive)
